Data published in paper PMC6201908, “Affinity, potency, efficacy, and selectivity of neurokinin A analogs at human recombinant NK2 and NK1 receptors” (PLoS ONE, 2018).
Where two headings read alike, the source gives them in different places. Non-standard residues stand in square brackets, D forms with d. Residues, ends and D or L forms follow the SMILES beside them. No end group written: not given here. NMeL = CN[C@@H](CC(C)C)C(=O)O; βAla = NCCC(=O)O

Key:
[1] = biological target: T1, human recombinant NK1 receptors (Homo sapiens, UniProt P25103); test: cell-based
Procedure: (§1) Human recombinant NK2 and NK1 receptors were generated using stably transfected CHO cells (CHO-hNK2 and CHO-hNK1, respectively). Human NK2 or NK1 receptor expressing vectors from Genecopeia (Rockville, USA) were transfected in CHO cells using the standard FuGENE protocol and cells were selected using 450 μg/mL geneticin (G418). Clones expressing the receptors were selected by functional coupling to calcium using FLIPR and a single clone for each receptor subtype was selected for expansion and stable cell line generation. Cells were cultured in a humidified incubator with 5% CO2 in F12K medium containing 10% heat inactivated FBS and 450 μg/mL geneticin and passaged on reaching 80–90% confluence.
(§2) The agonist efficacy of the test compounds at recombinant human NK1 or NK2 receptors expressed in CHO cells was assessed by measuring the intracellular calcium response using the calcium-sensitive dye Fluo-4 AM (Eugene, OR, USA) and a Fluorometric Imaging Plate Reader (FLIPR, Molecular Devices, CA, USA). CHO-hNK1 and CHO-hNK2 cells were seeded into black walled clear-bottom 384-well plates at a density of 10,000 and 15,000 cells per well in 50 μL culture media, respectively, and grown overnight at 37°C in a humidified CO2-incubator. Cells were washed in washing buffer using an EMBLA 384 plate washer, leaving 20 μL of buffer per well after the final aspiration. Cells were then incubated at 37°C with the cytoplasmic Ca^2+ indicator Fluo-4 AM (final concentration 1 μM) in assay buffer (20 mM HEPES, 145 mM NaCl, 5 mM KCl, 5.5 mM glucose, 1 mM MgCl2 and 2 mM CaCl2, pH 7.4, 0.05% Pluronic F-127 and 0.1% BSA) containing 2.5 mM probenecid for 45–60 min (cell loading). Cells were then washed 3 times in washing buffer (20 mM HEPES, 145 mM NaCl, 5 mM KCl, 5.5 mM glucose, 1 mM MgCl2 and 2 mM CaCl2, pH 7.4 and 2.5 mM probenecid) using an EMBLA 384 plate washer, leaving 30 μL of buffer in each well after the last wash. Loaded cell plates were transferred to the FLIPR and calcium responses were monitored as described below. […] Concentration response curves of test compounds were generated in duplicate on at least two different occasions from the same stock solutions. Test solutions were prepared from 10 mM stock solutions in DMSO and 1 μL of each solution was stamped into V-bottom assay plates containing 49 μL assay buffer. The final concentration of DMSO was 0.5% in each well.

[2] = biological target: T2, human recombinant NK2 receptors (Homo sapiens, UniProt P21452); test: cell-based
T2 sequence (P21452 1-398): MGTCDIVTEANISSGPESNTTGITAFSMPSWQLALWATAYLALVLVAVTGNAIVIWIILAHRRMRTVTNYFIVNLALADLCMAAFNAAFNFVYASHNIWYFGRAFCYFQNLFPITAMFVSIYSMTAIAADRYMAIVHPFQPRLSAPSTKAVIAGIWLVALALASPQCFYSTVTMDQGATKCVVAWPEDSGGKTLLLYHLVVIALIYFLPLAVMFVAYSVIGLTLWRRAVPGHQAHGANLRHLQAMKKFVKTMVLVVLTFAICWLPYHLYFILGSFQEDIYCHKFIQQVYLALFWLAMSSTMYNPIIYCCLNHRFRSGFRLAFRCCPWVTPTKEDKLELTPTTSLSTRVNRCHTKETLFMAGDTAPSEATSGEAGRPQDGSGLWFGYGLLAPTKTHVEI
Procedure: as §1, §2

[3] = biological target: T1, human recombinant NK1 receptors; test: cell-based; format: cell-based
Procedure: (§3) CHO-hNK2 and CHO-hNK1 cells were transiently transfected with a CRE-LUC reporter construct using Lipofectamine 2000. At 24 h post-transfection, cells were plated at a density of 20,000 cells/well in a 96-well culture plate. […] Luciferase expression was measured after 5 h of incubation at 37°C (in the presence of 5% CO2) by adding Firefly Luciferase reagent, followed by Renilla Luciferase reagent. Luminescence was measured by using an Envision Multilabel flash lamp reader after addition of the first and second reagents. Data were normalized by calculating the ratio of the Firefly luminescence from the CRE reporter to the Renilla luminescence from the control Renilla Luciferase vector.

[4] = biological target: T2, human recombinant NK2 receptors; test: cell-based; conditions: for EC50: CHO-hNK2 cells
Procedure: as §3

[5] = biological target: T1, human recombinant NK1 receptors; test: Displacement of [^3H]-Septide binding to CHO-hNK1 membranes (septide site)
Procedure: Protein expression was induced by addition of 5 mM sodium butyrate to the culture medium. […] The cell suspension was collected, placed on ice and centrifuged for 5 min at 4°C and 1200 rpm in a Beckman GS6R centrifuge. After removal of the supernatant the cell pellet was washed and collected by re-suspension in PBS and centrifugation. The final pellet was weighed and frozen at -80°C until use. Frozen pellets were thawed and homogenized in 10 volumes (w/v) of membrane preparation buffer (50 mM HEPES pH 7.4, 1 mM EDTA, 50 μg/mL bacitracin and protease inhibitors) using a Polytron Ultraturrax (twice for 15 s per cycle). The homogenate was centrifuged for 20 min at 4°C and 18500 rpm in a SL-50T Sorvall rotor and the pellet was re-suspended in membrane preparation buffer and re-homogenized as before. After centrifugation for 20 min at 4°C and 18500 rpm, the pellets were re-suspended in 5 volumes of membrane preparation buffer and divided into aliquots before freezing at -80°C. Protein concentration was determined using BioRad Protein Assay (Milan, Italy) with a BSA standard curve. Stock solutions of test compounds (10 mM) were prepared in DMSO and stored at -20°C until use. […] The goodness of fit between One-Site and Two-Site models was examined using Akaike's Information Corrected Criteria (AICC; [23]) in SAS v9.4 (SAS Institute, Cary NC) in order to select the best model for the data generated. […] Data from displacement experiments were plotted as the log [inhibitor concentration] (X axis) versus response expressed as TB in cpm (Y axis).

[6] = biological target: T2, human recombinant NK2 receptors; test: Displacement of [^125I]-NKA binding to CHO-hNK2 membranes
NK1 receptor = biological target: T3, NK1 receptor (Homo sapiens, UniProt P25103); test: [3H]-Septide displacement
T3 chain: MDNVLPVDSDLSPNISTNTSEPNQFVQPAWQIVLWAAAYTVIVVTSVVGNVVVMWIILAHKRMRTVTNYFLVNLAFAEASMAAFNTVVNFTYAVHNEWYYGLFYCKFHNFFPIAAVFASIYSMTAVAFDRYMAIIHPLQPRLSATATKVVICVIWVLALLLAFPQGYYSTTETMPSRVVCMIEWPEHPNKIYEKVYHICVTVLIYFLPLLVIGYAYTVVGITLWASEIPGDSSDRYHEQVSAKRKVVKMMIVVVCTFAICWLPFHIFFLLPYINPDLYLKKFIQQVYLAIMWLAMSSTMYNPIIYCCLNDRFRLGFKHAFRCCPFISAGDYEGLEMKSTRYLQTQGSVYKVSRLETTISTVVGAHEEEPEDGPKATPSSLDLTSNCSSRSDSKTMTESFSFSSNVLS

NK2 receptor = biological target: T4, NK2 receptor (Homo sapiens, UniProt P21452); test: [125I]-NKA displacement
T4 chain: T2 sequence (P21452 1-398)

[7] = Intracellular Ca^2+ pEC50, CHO-hNK1 cells, mean ± SD
[8] = NK1 EC50 intracellular calcium response, CHO-hNK1 cells
[9] = Intracellular Ca^2+ pEC50, CHO-hNK2 cells, mean ± SD
[10] = NK2 EC50 intracellular calcium response, CHO-hNK2 cells
[11] = CHO-hNK1 cells, mean ± SD, read-out: cAMP stimulation pEC50 (converted)
[12] = CHO-hNK1 cells, read-out: NK1 EC50 cAMP stimulation
[13] = mean ± SD, read-out: cAMP stimulation pEC50 (converted)
[14] = read-out: NK2 EC50 cAMP stimulation
[15] = 5.0 nM [^3H]-Septide, CHO-hNK1 membranes 20 μg/well, 23°C, 1 h, mean ± SD, read-out: [^3H]-Septide binding pKi (converted)
[16] = displacement of [^3H]-Septide binding, read-out: NK1 [^3H]-Septide Ki
[17] = CHO-hNK1 cells, % of maximal response observed with substance P, mean ± SD
[18] = [^125I]-NKA binding pKi, 0.1 nM [^125I]-NKA, CHO-hNK2 membranes 6 μg/well, 23°C, 3 h, mean ± SD

CSCC[C@H](NC(=O)[C@H](CC(C)C)NC(=O)CCNC(=O)[C@@H](NC(=O)[C@H](Cc1ccccc1)NC(=O)[C@H](CO)NC(=O)[C@@H](N)CC(=O)O)C(C)C)C(N)=O [[β-Ala^8]-NKA(4–10), Asp-Ser-Phe-Val-[β-Ala]-Leu-Met-NH2] (H-DSFV[βAla]LM-NH2)
Intracellular Ca^2+ % Max [1]: 106.0 ± 11.5% | EC50 [1, 7]: 46.8 nM | EC50 [1, 8]: 46.8 nM | Intracellular Ca^2+ % Max [2]: 102.2 ± 7.4% | EC50 [2, 9]: 0.871 nM | EC50 [2, 10]: 0.86 nM | cAMP stimulation % Max [3]: 97.3 ± 24.8% | EC50 [3, 11]: 5.62 nM | EC50 [3, 12]: 5.62 nM | cAMP stimulation % Max [4]: 84.6 ± 13.1% | EC50 [4, 13]: 0.0234 nM | EC50 [4, 14]: 0.023 nM | Ki [5, 15]: 2090 nM | Ki [5, 16]: 2090 nM

CSCC[C@H](NC(=O)[C@H](CC(C)C)N(C)C(=O)CNC(=O)[C@@H](NC(=O)[C@H](Cc1ccccc1)NC(=O)[C@H](CCCNC(=N)N)NC(=O)[C@@H](N)CC(=O)O)C(C)C)C(N)=O [[Arg^5,MeLeu^9]-NKA(4-10), Asp-Arg-Phe-Val-Gly-(NMe-Leu)-Met-NH2] (H-DRFVG[NMeL]M-NH2)
Intracellular Ca^2+ % Max [1, 17]: 99.9 ± 13.3% | Intracellular Ca^2+ pEC50 ([1]; CHO-hNK1 cells, mean ± SD): 9.52 ± 0.29 | Intracellular Ca^2+ % Max ([2]; CHO-hNK2 cells, % of maximal response observed with NKA, mean ± SD): 111.5 ± 3.7% | EC50 [2, 9]: 0.162 nM | NK1/NK2 ratio of EC50s for intracellular calcium response ([2]; NK1 EC50 / NK2 EC50): 2 | [^125I]-NKA binding Slope ([6]; Hill slope of displacement curve, 0.1 nM [^125I]-NKA, 23°C, 3 h, mean ± SD): -0.90 ± 0.07 | NK1/NK2 ratio of Ki values ([6]; NK1 [^3H]-Septide Ki / NK2 [^125I]-NKA Ki): 174 | Ki [6, 18]: 0.126 nM | [^3H]-Septide binding pKi ([5]; 5.0 nM [^3H]-Septide, CHO-hNK1 membranes 20 μg/well, 23°C, 1 h, mean ± SD): 7.68 ± 0.16 | [^3H]-Septide binding Slope ([5]; Hill slope of displacement curve, 5.0 nM [^3H]-Septide, 23°C, 1 h, mean ± SD): -0.75 ± 0.03

CSCC[C@H](NC(=O)[C@H](CC(C)C)NC(=O)CNC(=O)[C@@H](NC(=O)[C@H](Cc1ccccc1)NC(=O)[C@H](CO)NC(=O)[C@H](CC(=O)O)NC(=O)[C@@H](NC(=O)[C@H](CCCCN)NC(=O)[C@@H](N)Cc1c[nH]cn1)[C@@H](C)O)C(C)C)C(N)=O [NKA, reference compound]
cAMP stimulation % Max [3, 17]: 100.5 ± 13.6%

CCCC[C@H](NC(=O)[C@H](CC(C)C)N(C)C(=O)CNC(=O)[C@@H](NC(=O)[C@H](Cc1ccccc1)NC(=O)[C@H](CCCCN)NC(=O)[C@@H](N)CC(=O)O)C(C)C)C(N)=O [[Lys^5,MeLeu^9,Nle^10]-NKA(4-10), Asp-Lys-Phe-Val-Gly-Leu(NMe)-Nle-NH2]
Intracellular Ca^2+ % Max [1]: 107.6 ± 3.1% | EC50 [1, 7]: 15.5 nM | EC50 [1, 8]: 15.5 nM | Intracellular Ca^2+ % Max [2]: 101.4 ± 3.0% | EC50 [2, 9]: 0.148 nM | EC50 [2, 10]: 0.15 nM | Fold more selective than NKA for activation of NK2 over NK1 receptors (calcium) ([2]; from EC50 ratios): approximately 100 fold | Ki ([6]; NK2 [^125I]-NKA Ki, displacement of [^125I]-NKA binding): 0.87 nM | Ki [6, 18]: 0.871 nM | Fold more selective for NK2 over septide site of NK1 receptor compared with NKA (binding) ([6]; from Ki ratios): more than 28 fold | cAMP stimulation % Max [3]: 94.3 ± 21.6% | EC50 [3, 11]: 1.78 nM | EC50 [3, 12]: 1.78 nM | cAMP stimulation % Max [4]: 107.4 ± 7.36% | EC50 [4, 13]: 0.024 nM | EC50 [4, 14]: 0.024 nM | Ki [5, 15]: 589 nM | Ki [5, 16]: 589 nM

B1: [Arg5,MeLeu9]-NKA(4-10) (peptide)
chain: DRFVG[NMeL]M-NH2
modifications: N-terminus assumed
SMILES: CSCC[C@H](NC(=O)[C@H](CC(C)C)N(C)C(=O)CNC(=O)[C@@H](NC(=O)[C@H](Cc1ccccc1)NC(=O)[C@H](CCCNC(=N)N)NC(=O)[C@@H](N)CC(=O)O)C(C)C)C(N)=O
Ki (NK1 receptor): 20.9 nM | Ki (NK2 receptor): 0.12 nM

DSFVGLM-NH2 [NKA(4-10)]
Ki (NK2 receptor): 2.3 nM

DKFVG[NMeL]M-NH2 [[Lys5,MeLeu9]-NKA(4-10)]
Ki (NK1 receptor): 50.1 nM | Ki (NK2 receptor): 0.2 nM

DRFVGLM-NH2 [[Arg5]-NKA(4-10)]
Ki (NK1 receptor): 8.3 nM | Ki (NK2 receptor): 0.31 nM
